According to patent US11485708B2, “Compounds for treatment of PD-L1 diseases” (CHEMOCENTRYX, INC., priority 2019, dated 2022):

The compounds below were run against human PD-L1 / Human PD-1 (Homo sapiens (Human), UniProt Q9NZQ7) (assay: Enzyme-Linked Immunosorbent Assay (ELISA), PD-1/PD-L1 binding). Conditions: plates coated with human PD-L1, biotinylated human PD-1 added.
Description: 96 Well plates were coated with 1 μg/mL of human PD-L1 (obtained from R&D) in PBS overnight at 4′° C. The wells were then blocked with 2% BSA in PBS (W/V) with 0.05% TWEEN-20 for 1 hour at 37′° C. The plates were washed 3 times with PBS/0.05% TWEEN-20 and the compounds were serial diluted (1:5) in dilution medium and added to the ELISA plates. Human PD-1 and biotin 0.3 μg/mL (ACRO Biosystems) were added and incubated for 1 hour at 37° C. then washed 3 times with PBS/0.05% TWEEN-20. A second block was performed with 2% BSA in PBS (WNV)/0.05% TWEEN-20 for 10 min at 37° C. and the plates were washed 3 times with PBS/0.05% TWEEN-20. Streptavidin-HIRP was added for 1 hour at 37° C. then the plates were washed 3 times with PBS/0.05% TWEEN-20. TMB substrate was added and reacted for 20 min at 37° C. A stop solution (2 N aqueous H2SO4) was added. The absorbance was read at 450 nm using a micro-plate spectrophotometer.

Sequence of human PD-L1 / Human PD-1 (Q9NZQ7 19-239): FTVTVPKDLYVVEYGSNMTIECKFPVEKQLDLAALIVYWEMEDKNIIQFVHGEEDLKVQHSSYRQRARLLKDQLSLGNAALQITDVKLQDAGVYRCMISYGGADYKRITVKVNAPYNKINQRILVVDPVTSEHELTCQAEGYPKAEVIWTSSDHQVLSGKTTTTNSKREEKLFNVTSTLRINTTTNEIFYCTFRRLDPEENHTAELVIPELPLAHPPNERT

Row | SMILES | IC50
1 | Cc1c(OCCCN2CCC2(C)C)cccc1-c1cccc(-c2ccc3c(c2)CCNC3)c1 [Compd 1.103, 6-(3′-(3-(2,2-dimethylazetidin-1-yl)propoxy)-2′-methyl-[1,1′-biphenyl]-3-yl)-1,2,3,4-tetrahydroisoquinoline] | 1000 to 10000 nM
2 | Cc1c(OCCCN2CCC(C)(F)CC2)cccc1-c1cccc(-c2ccc3c(c2)CCNC3)c1C [Compd 1.104] | < 1000 nM
3 | Cc1c(OCCCN2CCCC2(C)C)cccc1-c1cccc(-c2ccc3c(c2)CCNC3)c1C [Compd 1.105] | < 1000 nM
4 | CCOC(=O)CN1CCc2cc(-c3cccc(-c4cccc(OCCCN5[C@H](C)CC[C@H]5C)c4C)c3C)ccc2C1 [Compd 1.106] | 1000 to 10000 nM
5 | Cc1c(OCCCN2[C@H](C)CC[C@H]2C)cccc1-c1cccc(-c2ccc3c(c2)CCN(CCO)C3)c1C [Compd 1.107] | < 1000 nM
6 | Cc1c(OCCCN2[C@H](C)CC[C@H]2C)cccc1-c1cccc(-c2ccc3c(c2)CCN(CC(=O)O)C3)c1C [Compd 1.108] | < 1000 nM
7 | Cc1c(OCCCN2CC3(CC(O)C3)C2)cccc1-c1cccc(-c2ccc3c(c2)CCNC3)c1C [Compd 1.109] | < 1000 nM
8 | Cc1c(OCCCN2CCC(F)CC2)cccc1-c1cccc(-c2ccc3c(c2)CCNC3)c1C [Compd 1.110] | < 1000 nM
9 | Cc1c(OCCCN2CCC(O)CC2)cccc1-c1cccc(-c2ccc3c(c2)CCNC3)c1C [Compd 1.111] | < 1000 nM
10 | Cc1c(OCCCN2CC(O)C2)cccc1-c1cccc(-c2ccc3c(c2)CCNC3)c1C [Compd 1.112] | < 1000 nM
11 | Cc1c(OCCCN2[C@H](C)CC[C@H]2C)cccc1-c1cccc(-c2ccc(C(C)N)cc2)c1C (some centres unmarked) [Compd 1.113] | < 1000 nM
12 | Cc1c(OCCCN2[C@H](C)CC[C@H]2C)cccc1-c1cccc(-c2ccc3c(c2)CCNC3)c1C [Compd 1.114] | < 1000 nM
13 | COc1cccc(-c2cccc(-c3ccc4c(c3)CCNC4)c2C)c1C [Compd 1.115, 6-(3′-methoxy-2,2′-dimethyl-[1,1′-biphenyl]-3-yl)-1,2,3,4-tetrahydroisoquinoline] | 1000 to 10000 nM
14 | COc1cccc(-c2cccc(-c3ccc4c(c3)CCNC4)c2C)c1 [Compd 1.116, 6-(3′-methoxy-2-methyl-[1,1′-biphenyl]-3-yl)-1,2,3,4-tetrahydroisoquinoline] | 1000 to 10000 nM
15 | Cc1ccccc1-c1cccc(-c2ccc3c(c2)CCNC3)c1C [Compd 1.117, 6-(2,2′-dimethyl-[1,1′-biphenyl]-3-yl)-1,2,3,4-tetrahydroisoquinoline] | 1000 to 10000 nM
16 | Cc1c(OCCCN2[C@H](C)CC[C@H]2C)cccc1-c1cccc(-c2ccc(CCN)cc2)c1C [Compd 1.118] | < 1000 nM
17 | Cc1c(OCCCN2[C@H](C)CC[C@H]2C)cccc1-c1cccc(-c2ccc(C(C)(C)N)cc2)c1C [Compd 1.119] | < 1000 nM
18 | Cc1c(OCCCN2[C@H](C)CC[C@H]2C)cccc1-c1cccc(-c2ccc3c(c2)CNC3)c1C [Compd 1.120] | < 1000 nM
19 | Cc1c(OCCCN2[C@H](C)CC[C@H]2C)cccc1-c1cccc(-c2ccc(CN)cc2)c1C [Compd 1.121] | < 1000 nM
20 | Cc1c(OCCCN2[C@H](C)CC[C@H]2C)cccc1-c1cccc(-c2ccc(CN(C)C)cc2)c1C [Compd 1.122] | < 1000 nM
21 | Cc1c(OCCCN2CCC2(C)C)cccc1-c1cccc(-c2ccc3c(c2)CNCCC3)c1C [Compd 1.123] | < 1000 nM
22 | Cc1c(OCCCN2CCC2(C)C)cccc1-c1cccc(-c2ccc3c(c2)CNCC3)c1C [Compd 1.124] | < 1000 nM
23 | Cc1c(OCCCN2CCC2(C)C)cccc1-c1cccc(-c2ccc3c(c2)CCNC3)c1C [Compd 1.125] | < 1000 nM
24 | Cc1c(-c2ccc3c(c2)CCNC3)cccc1-c1ccc2c(c1)OCCO2 [Compd 1.126] | < 1000 nM
25 | Cc1c(-c2ccc(CN)cc2)cccc1-c1ccc2c(c1)OCCO2 [Compd 1.127] | 1000 to 10000 nM
26 | Cc1c(-c2ccc3c(c2)CNCC3)cccc1-c1ccc2c(c1)OCCO2 [Compd 1.128] | 1000 to 10000 nM
